Results on 26 molecules are retold here after patent US20250326749A1, “COMPOUNDS, COMPOSITIONS, AND METHODS OF USING THEREOF” (Sionna Therapeutics Inc., priority 2022, published 2025).

In this assay the target is T1, ΔF508-CFTR (Homo sapiens, UniProt P13569, DEL508-508).
T1 construct: expressed in transfected cells; host or cells: CFSMEo- (human CF submucosal gland epithelial cells, ΔF508/Q2X), transiently transfected by nucleofection
T1 sequence (P13569 with tags, fused parts or gaps DEL508-508): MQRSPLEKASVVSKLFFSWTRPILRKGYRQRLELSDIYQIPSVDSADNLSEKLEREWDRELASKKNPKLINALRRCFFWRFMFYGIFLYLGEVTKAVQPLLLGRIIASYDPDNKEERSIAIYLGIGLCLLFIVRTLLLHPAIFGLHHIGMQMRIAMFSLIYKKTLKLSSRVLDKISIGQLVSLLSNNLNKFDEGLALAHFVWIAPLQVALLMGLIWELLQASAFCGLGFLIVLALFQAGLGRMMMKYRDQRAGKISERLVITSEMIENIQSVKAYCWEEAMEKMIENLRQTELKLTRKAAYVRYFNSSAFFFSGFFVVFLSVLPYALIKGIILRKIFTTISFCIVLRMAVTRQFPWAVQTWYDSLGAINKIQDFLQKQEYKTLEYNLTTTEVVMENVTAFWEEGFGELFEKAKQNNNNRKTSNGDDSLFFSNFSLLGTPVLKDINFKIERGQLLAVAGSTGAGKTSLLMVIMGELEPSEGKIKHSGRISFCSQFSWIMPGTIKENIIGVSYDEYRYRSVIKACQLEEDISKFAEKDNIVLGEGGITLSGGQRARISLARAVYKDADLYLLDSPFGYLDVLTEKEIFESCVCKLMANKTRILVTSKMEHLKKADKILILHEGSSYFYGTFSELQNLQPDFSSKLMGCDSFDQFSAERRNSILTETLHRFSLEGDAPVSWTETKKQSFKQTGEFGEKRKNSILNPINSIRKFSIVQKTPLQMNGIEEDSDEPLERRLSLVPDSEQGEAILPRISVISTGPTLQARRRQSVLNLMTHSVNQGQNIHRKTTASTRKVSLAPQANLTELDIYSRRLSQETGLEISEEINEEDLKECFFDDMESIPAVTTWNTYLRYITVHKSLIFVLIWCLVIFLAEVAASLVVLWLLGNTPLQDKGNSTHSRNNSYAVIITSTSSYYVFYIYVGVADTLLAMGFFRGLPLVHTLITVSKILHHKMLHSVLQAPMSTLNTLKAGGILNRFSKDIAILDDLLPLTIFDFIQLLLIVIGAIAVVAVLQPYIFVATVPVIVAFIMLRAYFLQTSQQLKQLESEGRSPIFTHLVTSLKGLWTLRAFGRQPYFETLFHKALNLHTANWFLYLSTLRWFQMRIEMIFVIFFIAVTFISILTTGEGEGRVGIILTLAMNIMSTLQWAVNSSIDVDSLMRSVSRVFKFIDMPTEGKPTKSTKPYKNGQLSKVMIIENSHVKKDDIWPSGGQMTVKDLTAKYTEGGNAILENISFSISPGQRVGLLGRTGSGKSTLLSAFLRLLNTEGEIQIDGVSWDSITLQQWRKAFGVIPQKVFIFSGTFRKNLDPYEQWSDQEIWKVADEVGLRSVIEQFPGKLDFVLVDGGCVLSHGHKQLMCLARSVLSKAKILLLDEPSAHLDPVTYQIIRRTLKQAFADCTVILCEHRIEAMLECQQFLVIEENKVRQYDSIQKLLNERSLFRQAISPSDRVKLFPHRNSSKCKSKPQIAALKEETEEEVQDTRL
The experiment in a line: ΔF508-CFTR-HRP trafficking assay (cell surface expression of ΔF508-CFTR). In kind it is cell-based. As to conditions: CFSMEo- cells transiently transfected with ΔF508-CFTR-HRP; test agent 3 μM, 48 h; HRP chemiluminescence. An excerpt: Test agents were screened for their effect on cell surface expression of ΔF508-CFTR using the ΔF508-CFTR-HRP trafficking assay. For this assay, a ΔF508-CFTR expression construct was designed with an in-frame insertion of a horseradish peroxidase (HRP) tag into the 4th extracellular loop of CFTR. The HRP tag would be presented extracellularly, in cells transiently transfected with the ΔF508-CFTR-HRP construct, following correction of the ΔF508-CFTR trafficking defect. The quantity of ΔF508-CFTR-HRP expressed on the plasma membrane could therefore be determined by measuring an HRP-dependent signal after the application of a cell-impermeable HRP substrate.
In brief, CF submucosal gland epithelial cells (CFSMEo-), derived from the airways of a CF patient (ΔF508/Q2X) and provided by Dr. Dieter Gruenert, University of California-San Francisco, were cultured at 37° C. with 5% CO2 in minimum essential medium (MEM) with Earle's salt and nonessential amino acids, supplemented with 10% (volume per volume [v/v]) fetal bovine serum, 2 mM L-glutamine and 1× (v/v) penicillin/streptomycin and grown in tissue culture-treated flasks coated with an extracellular matrix (ECM) cocktail consisting of 10 μg/mL human fibronectin, 30 μg/mL bovine collagen type I, and 100 μg/mL bovine serum albumin in LHC basal medium. These CFSMEo^− cells were transiently transfected with 4 μg of the ΔF508-CFTR-HRP expression construct using the Lonza 4D-Nucleofector Core unit (Lonza, Catalogue No. AAF-1002B) with the X unit (Lonza, Catalogue No. AAF-1002X) and SF Cell Line 4D-Nucleofector X Kit L (Lonza, Catalogue No. V4XC-2024) according to the manufacturer's instructions and plated at 1.2×10^4 cells/well onto collagen-coated, 96-well plates (Corning Inc.). Twenty-four h post-transfection, cells were treated with test agents, solubilized in DMSO at a concentration of 3 μM in replicates of 3, and allowed to incubate for 48 h. To detect HRP expression, cell culture media was removed, cells were washed with PBS and 100 μL of Luminata Forte HRP chemiluminescent substrate (EMD Millipore, Burlington, MA) was added to each well. Following a 5-minute incubation, chemiluminescence was measured in relative luminescent units (RLUs) using an EnVision plate reader (Perkin Elmer, Waltham, MA).
The ΔF508-CFTR-HRP trafficking data was normalized to the vehicle treated control (0.3% DMSO), followed by calculation of the mean, standard deviation, and standard error. If the test agent increased cell surface expression of ΔF508-CFTR-HRP relative to the vehicle-treated control, then that test agent was considered a ΔF508-CFTR corrector. Based on the description above, the biological activity of the examples in this disclosure is collected in Table 2.
`C[C@H](Oc1cc(-n2nc(C(F)(F)F)c3c2[C@@H](OC24CC(C(=O)O)(C2)C4)CCC3)cnc1F)c1cc2c(cc1F)OC(F)(F)O2` (single isomer, unassigned) [75 (P1)]: the “RLUs: ΔF508-CFTR-HRP trafficking data normalized to the vehicle treated control (0.3% DMSO)” value is recorded as “C (RLU 0.0 μM-3.5 μM)”.

`C[C@H](Oc1cccc(-n2nc(C(F)(F)F)c3c2C(OC24CC(C(=O)O)(C2)C4)CCC3)c1)c1ccc2c(c1)OC(F)(F)O2` (single isomer, unassigned) [Example 42]: the “RLUs: ΔF508-CFTR-HRP trafficking data normalized to the vehicle treated control (0.3% DMSO)” value is listed as “A (RLU 5.0 μM-10 μM)”.

As for `CC(Oc1cccc(-n2nc(C(F)(F)F)c3c2N(CC24CC(C(=O)O)(C2)C4)CCC3)c1)c1ccc2c(c1)OC(F)(F)O2` (centres unmarked) [Example 10, 3-[[1-[3-[1-(2,2-difluoro-1,3-benzodioxol-5-yl)ethoxy]phenyl]-3-(trifluoromethyl)-5,6-dihydro-4H-pyrazolo[3,4-b]pyridine-7-yl]methyl]bicyclo[1.1.1]pentane-1-carboxylic acid], the “RLUs: ΔF508-CFTR-HRP trafficking data normalized to the vehicle treated control (0.3% DMSO)” value is recorded as “B (RLU 3.5 μM-5.0 μM)”.

Regarding `C[C@H](Oc1cncc(-n2nc(C(F)(F)F)c3c2[C@H](OC24CCC(C(=O)O)(CC2)CC4)CCC3)c1)c1ccc2c(c1)OC(F)(F)O2` (single isomer, unassigned) [Example 58], the “RLUs: ΔF508-CFTR-HRP trafficking data normalized to the vehicle treated control (0.3% DMSO)” value is given as “B (RLU 3.5 μM-5.0 μM)”.

Take `C[C@H](Oc1cccc(-n2nc(C(F)(F)F)c3c2C(Oc2ccc(C(=O)O)cc2)CCC3)c1)c1cc2c(cn1)OC(F)(F)O2` (some centres unmarked) [Example 31]: the “RLUs: ΔF508-CFTR-HRP trafficking data normalized to the vehicle treated control (0.3% DMSO)” value is on record as “C (RLU 0.0 μM-3.5 μM)”.

As to `CC[C@H](Oc1cc(-n2nc(C(F)(F)F)c3c2[C@@H](Oc2ccc(C(=O)O)cc2)CCC3)ccn1)c1ccc2c(c1)OC(F)(F)O2` (single isomer, unassigned) [Example 36k], the “RLUs: ΔF508-CFTR-HRP trafficking data normalized to the vehicle treated control (0.3% DMSO)” value is on record as “C (RLU 0.0 μM-3.5 μM)”.

As to `O=C(O)c1ccc(O[C@H]2CCCc3c(C(F)(F)F)nn(-c4ccnc(N[C@H](c5ccc6c(c5)OC(F)(F)O6)C5CC5)c4)c32)cc1` (single isomer, unassigned) [Example 90], the “RLUs: ΔF508-CFTR-HRP trafficking data normalized to the vehicle treated control (0.3% DMSO)” value is “C (RLU 0.0 μM-3.5 μM)”.

As to `C[C@H](Oc1cc(-n2nc(C(F)(F)F)c3c2N(CC24CC(C(=O)O)(C2)C4)CCC3)cnn1)c1cc2c(cn1)OC(F)(F)O2` (single isomer, unassigned) [Example 2], the “RLUs: ΔF508-CFTR-HRP trafficking data normalized to the vehicle treated control (0.3% DMSO)” value is “C (RLU 0.0 μM-3.5 μM)”.

On to `C[C@H](Nc1ccc(F)c(-n2nc(C(F)(F)F)c3c2[C@H](OC24CC(C(=O)O)(C2)C4)CCC3)c1)c1ccc2c(c1)OC(F)(F)O2` (single isomer, unassigned) [99 (P2)], for which the “RLUs: ΔF508-CFTR-HRP trafficking data normalized to the vehicle treated control (0.3% DMSO)” value is given as “C (RLU 0.0 μM-3.5 μM)”.

As for `C[C@H](Nc1cc(-n2nc(C#N)c3c2[C@@H](OC24CC(C(=O)O)(C2)C4)CCC3)ncc1F)c1ccc2c(c1)OC(F)(F)O2` (single isomer, unassigned) [107 (P1)], the “RLUs: ΔF508-CFTR-HRP trafficking data normalized to the vehicle treated control (0.3% DMSO)” value is given as “C (RLU 0.0 μM-3.5 μM)”.

Turning to `C[C@H](Oc1cc(-n2nc(C(F)(F)F)c3c2[C@H](OC24CCC(C(=O)O)(CC2)CC4)CCC3)cnc1F)c1ccc2c(c1)OC(F)(F)O2` (single isomer, unassigned) [Example 60], the “RLUs: ΔF508-CFTR-HRP trafficking data normalized to the vehicle treated control (0.3% DMSO)” value was “C (RLU 0.0 μM-3.5 μM)”.

In the case of `C[C@H](Oc1cc(-n2nc(C(F)(F)F)c3c2[C@H](OC24CCC(C(=O)O)(CC2)CC4)CCC3)ccn1)c1ccc2c(c1)OC(F)(F)O2` (single isomer, unassigned) [Example 65], the “RLUs: ΔF508-CFTR-HRP trafficking data normalized to the vehicle treated control (0.3% DMSO)” value is “C (RLU 0.0 μM-3.5 μM)”.

Take `C[C@H](Oc1cccc(-n2nc(C(F)(F)F)c3c2[C@@H](Oc2ccc(C(=O)O)cc2)CCC3)n1)c1cc2c(cc1F)OC(F)(F)O2` (single isomer, unassigned) [Example 36l]: the “RLUs: ΔF508-CFTR-HRP trafficking data normalized to the vehicle treated control (0.3% DMSO)” value is given as “A (RLU 5.0 μM-10 μM)”.

Take `C[C@H](Nc1cc(-n2nc(C(F)(F)F)c3c2[C@@H](OC24CC(C(=O)O)(C2)C4)CCC3)ccc1F)c1ccc2c(c1)OC(F)(F)O2` (single isomer, unassigned) [Example 95 (P1)]: the “RLUs: ΔF508-CFTR-HRP trafficking data normalized to the vehicle treated control (0.3% DMSO)” value is “C (RLU 0.0 μM-3.5 μM)”.

Consider `C[C@H](Oc1cccc(-n2nc(C(F)(F)F)c3c2C(Sc2ccc(C(=O)O)cc2)CCC3)c1)c1ccc2c(c1)OC(F)(F)O2` (stereo partly drawn) [Example 70, 4-((1-(3-((S)-1-(2,2-difluorobenzo[d][1,3]dioxol-5-yl)ethoxy)phenyl)-3-(trifluoromethyl)-4,5,6,7-tetrahydro-1H-indazol-7-yl)thio)benzoic acid], for which the “RLUs: ΔF508-CFTR-HRP trafficking data normalized to the vehicle treated control (0.3% DMSO)” value was “A (RLU 5.0 μM-10 μM)”.

For the molecule `C[C@H](Oc1cc(-n2nc(C(F)(F)F)c3c2[C@@H](Oc2ccc(C(=O)O)cc2)CN(C)C3)ccn1)c1ccc2c(c1)OC(F)(F)O2` (single isomer, unassigned) [115 (P1)], the “RLUs: ΔF508-CFTR-HRP trafficking data normalized to the vehicle treated control (0.3% DMSO)” value is recorded as “B (RLU 3.5 μM-5.0 μM)”.

In the case of `C[C@H](Nc1cccc(-n2nc(C(F)(F)F)c3c2[C@@H](OC24CC(C(=O)O)(C2)C4)CCC3)c1)c1cc2c(cc1F)OC(F)(F)O2` (single isomer, unassigned) [97 (P1)], the “RLUs: ΔF508-CFTR-HRP trafficking data normalized to the vehicle treated control (0.3% DMSO)” value is on record as “C (RLU 0.0 μM-3.5 μM)”.

As for `C[C@H](Oc1cc(-n2nc(C(F)(F)F)c3c2N(Cc2ccc(C(=O)O)cc2)CCC3)ccn1)c1ccc2c(c1)OC(F)(F)O2` [Example 8, 4-[[1-[2-[(1S)-1-(2,2-difluoro-1,3-benzodioxol-5-yl)ethoxy]-4-pyridyl]-3-(trifluoromethyl)-5,6-dihydro-4H-pyrazolo[3,4-b]pyridine-7-yl]methyl]benzoic acid], the “RLUs: ΔF508-CFTR-HRP trafficking data normalized to the vehicle treated control (0.3% DMSO)” value is recorded as “B (RLU 3.5 μM-5.0 μM)”.

Regarding `C[C@H](Oc1cc(-n2nc(C(F)(F)F)c3c2[C@@H](Oc2ccc(-c4nc(=O)o[nH]4)cc2)CCC3)ccc1F)c1ccc2c(c1)OC(F)(F)O2` (single isomer, unassigned) [Example 111], the “RLUs: ΔF508-CFTR-HRP trafficking data normalized to the vehicle treated control (0.3% DMSO)” value was “C (RLU 0.0 μM-3.5 μM)”.

Regarding `C[C@H](Oc1cc(-n2nc(C#N)c3c2[C@@H](Oc2ccc(C(=O)O)cc2)CCC3)ccc1F)c1ccc2c(c1)OC(F)(F)O2` (single isomer, unassigned) [Example 104], the “RLUs: ΔF508-CFTR-HRP trafficking data normalized to the vehicle treated control (0.3% DMSO)” value is given as “B (RLU 3.5 μM-5.0 μM)”.

`C[C@H](Oc1cccc(-n2nc(C(F)(F)F)c3c2[C@H](O[C@H]2C[C@H](C(=O)O)C2)CCC3)n1)c1cc2c(cc1F)OC(F)(F)O2` (single isomer, unassigned) [83 (P2)]: the “RLUs: ΔF508-CFTR-HRP trafficking data normalized to the vehicle treated control (0.3% DMSO)” value was “C (RLU 0.0 μM-3.5 μM)”.

`C[C@H](Oc1cc(-n2nc(C(F)(F)F)c3c2[C@@H](OC24CC(c5nc(=O)o[nH]5)(C2)C4)CCC3)ccc1F)c1cc2c(cc1F)OC(F)(F)O2` (single isomer, unassigned) [86 (P1)]: the “RLUs: ΔF508-CFTR-HRP trafficking data normalized to the vehicle treated control (0.3% DMSO)” value was “C (RLU 0.0 μM-3.5 μM)”.

In the case of `CC(c1ccc2c(c1)OC(F)(F)O2)C1(c2cc(-n3nc(C(F)(F)F)c4c3C(Oc3ccc(C(=O)O)cc3)CCC4)ccn2)COC1` (centres unmarked) [Example 119, 4-[[1-[2-[3-[1-(2,2-difluoro-1,3-benzodioxol-5-yl)ethyl]oxetan-3-yl]-4-pyridyl]-3-(trifluoromethyl)-4,5,6,7-tetrahydroindazol-7-yl]oxy]benzoic], the “RLUs: ΔF508-CFTR-HRP trafficking data normalized to the vehicle treated control (0.3% DMSO)” value is listed as “C (RLU 0.0 μM-3.5 μM)”.

In the case of `C[C@H](Oc1cc(-n2nc(C(F)(F)F)c3c2N(Cc2ccc(C(=O)O)cc2)CCC3)cnn1)c1ccc2c(c1)OC(F)(F)O2` (single isomer, unassigned) [Example 4], the “RLUs: ΔF508-CFTR-HRP trafficking data normalized to the vehicle treated control (0.3% DMSO)” value was “B (RLU 3.5 μM-5.0 μM)”.

Regarding `C[C@H](Oc1cccc(-n2nc(C(F)(F)F)c3c2[C@@H](O[C@H]2C[C@H](C(=O)O)C2)CCC3)n1)c1cc2c(cc1F)OC(F)(F)O2` (single isomer, unassigned) [83 (P1)], the “RLUs: ΔF508-CFTR-HRP trafficking data normalized to the vehicle treated control (0.3% DMSO)” value is “B (RLU 3.5 μM-5.0 μM)”.

With `C[C@H](Oc1cc(-n2nc(C(F)(F)F)c3c2[C@@H](O[C@H]2CC[C@H](C(=O)O)CC2)CCC3)cnc1F)c1ccc2c(c1)OC(F)(F)O2` (single isomer, unassigned) [79 (P1)], the “RLUs: ΔF508-CFTR-HRP trafficking data normalized to the vehicle treated control (0.3% DMSO)” value is on record as “B (RLU 3.5 μM-5.0 μM)”.
